In brackets after ≈: the same amount, converted by molar mass.
details: buffer; pH 7.4; 200.0 µM

SMILES	solubility kinetic
CCC(=NCCc1ccc(OC)c(OC)c1)C1=C(O)CC(C)(C)CC1=O	47.3 µg/mL (≈ 132 µM)
CN(C)C(=O)c1cc(C(=O)c2ccccc2)c[nH]1	> 36.3 µg/mL
Cc1cc(-c2csc3nc[nH]c(=S)c23)cc(C)c1C	3.1 µg/mL (≈ 10.8 µM)
O=C(CN1CCCCC1)Nc1ccccc1Oc1ccccc1	5.6 µg/mL (≈ 18 µM)
COc1ccc(Nc2oc(-c3ccccc3F)nc2C#N)cc1	< 0.2 µg/mL
O=C(/C=C/c1ccncc1)c1ccc2c(c1)OCCO2	26.9 µg/mL (≈ 101 µM)
CC12CCC(=O)N1C(C(=O)N1CCN(c3ccc([N+](=O)[O-])cc3)CC1)CS2 (centres undefined)	30.7 µg/mL (≈ 78.6 µM)
CCN1CCN(C(=O)N(c2ccccc2)c2ccccc2)CC1	> 46.4 µg/mL
CC1CC(C)CN(C(=O)COC(=O)c2ccc3ncsc3c2)C1 (centres undefined)	44.9 µg/mL (≈ 135 µM)
Fc1ccc(NC(=S)Nc2cccnc2)c(F)c1F	> 42.5 µg/mL
C=CCc1ccccc1Oc1cc(F)nc(N)n1	27.7 µg/mL (≈ 113 µM)
CC1CC(=O)Nc2ccccc2N1C(=O)CN1C(=O)C(=O)N(C)C1=O (centres undefined)	> 51.6 µg/mL
O=C(NCC(=O)N1CCCCCCC1)c1ccco1	> 39.6 µg/mL
O=C(C[n+]1ccccc1)Nc1ccc(Cl)c([N+](=O)[O-])c1.[Cl-]	> 49.2 µg/mL
CCn1c(SCC(=O)NC2CCCCC2)nnc1-c1ccccc1F	> 54.4 µg/mL
Cc1cccc(C)c1N1C(=O)CCC(C)(C)C1=O	> 36.8 µg/mL
O=C(NCC(=O)N1CCN(Cc2ccccc2)CC1)c1cc(Cl)cc([N+](=O)[O-])c1	> 62.5 µg/mL
Cc1csc(NC(=O)c2cc(=O)[nH]c3ccccc23)n1	10.5 µg/mL (≈ 36.8 µM)
O=C(CN1CCOCC1)Nc1nc(-c2ccc(Cl)cc2)cs1	> 50.7 µg/mL
O=C(NCc1nc(-c2ccc(Cl)cc2)no1)c1ccco1	9.4 µg/mL (≈ 31 µM)
CCCc1cc(NCCCO)n2c(nc3ccccc32)c1C#N	3.3 µg/mL (≈ 10.7 µM)
CN(CCO)C(=O)C(c1ccccc1)c1ccccc1	36.2 µg/mL (≈ 134 µM)
CN1CCN(c2ccc(C(=O)NC3CCCCC3)cc2[N+](=O)[O-])CC1	49.7 µg/mL (≈ 143 µM)
O=C(c1ccccc1)c1ccc(C(=O)N2CCN(c3ccc(O)cc3)CC2)cc1	47.4 µg/mL (≈ 123 µM)

SMILES	solubility kinetic
O=C(NCCCO)C(=O)Nc1cc2c3c(c1)CCC(=O)N3CCC2	48.8 µg/mL (≈ 147 µM)
Cc1ccc(NC(=O)NC2CCCc3ccccc32)cc1 (centres undefined)	< 0.3 µg/mL
Cc1ccc(NC(=O)Nc2ncnc3nc[nH]c23)cc1	6.3 µg/mL (≈ 23.5 µM)
O=C(COC(=O)c1ccc(F)c([N+](=O)[O-])c1)NC(=O)NCc1ccccc1	21.3 µg/mL (≈ 56.8 µM)
CCCCCC(=O)Nc1cccc(S(=O)(=O)NC2=NCCC2)c1	> 50.6 µg/mL
Oc1ccc(C2Nc3cccc4cccc(c34)N2)cc1	> 39.3 µg/mL
O=[N+]([O-])c1ccc(-c2cnc3ccccc3n2)cc1	0.6 µg/mL (≈ 2.39 µM)
O=C1CN(C(=O)c2cccc([N+](=O)[O-])c2)CC(=O)N1	> 39.5 µg/mL
O=C(NC1CCCC1)C1CCN(c2cnccn2)CC1	> 41.2 µg/mL
Cc1cc(NC(=O)COC(=O)c2ccc(C)c(C)c2)no1	3.7 µg/mL (≈ 12.8 µM)
COc1cccc(-c2cc(C(=O)NC3CC3)c3ccccc3n2)c1	5.6 µg/mL (≈ 17.6 µM)
COc1ccc(/C=C2\SC(N)=NC2=O)cc1Cl	3.1 µg/mL (≈ 11.5 µM)
O=C(CSc1ccc([N+](=O)[O-])cn1)Nc1ccc(N2CCOCC2)cc1	0.9 µg/mL (≈ 2.4 µM)
O=C(COC(=O)c1ccc[nH]c1=O)NC1CCCCC1	37 µg/mL (≈ 133 µM)
COC(=O)c1cc(NC(=O)c2ccc(F)cc2)cc(C(=O)OC)c1	4.9 µg/mL (≈ 14.8 µM)
COc1ccc(CN2CCN(C(=O)CC(C)C)CC2)cc1	36.8 µg/mL (≈ 127 µM)
COc1ccc(CNC(=S)NCc2ccc(F)cc2)cc1	9.5 µg/mL (≈ 31.2 µM)
COc1ccc(/C=C/C(=O)Nc2cccnc2Cl)cc1	8.9 µg/mL (≈ 30.8 µM)
Cc1cccn2c(=O)c(C=O)c(N3CCSCC3)nc12	16.2 µg/mL (≈ 56 µM)
NC(=O)C1Cc2ccccc2CN1S(=O)(=O)c1ccc(Cl)s1 (centres undefined)	> 53.5 µg/mL
CC1CN(C(=S)Nc2cccc([N+](=O)[O-])c2)CC(C)O1 (centres undefined)	> 44.3 µg/mL
Fc1ccc2c(c1)C1OCCCC1C(c1ccccc1)N2 (centres undefined)	< 0.6 µg/mL
CC(=O)N[C@@H](CC(=O)O)C(=O)O	> 26.3 µg/mL
O=c1c2ccccc2ncn1Cc1ccccc1	31.5 µg/mL (≈ 133 µM)

SMILES	solubility kinetic
COc1cccc(C2(C)NC(=O)N(CC(=O)Nc3ccc(N4CCOCC4)cc3)C2=O)c1 (centres undefined)	57.7 µg/mL (≈ 132 µM)
CC(C)Nc1nc(-c2ccncc2)nc(-c2ccccc2)c1C#N	< 0.1 µg/mL
O=C(Nc1cccc2cccnc12)c1cccc(Cl)c1	1.5 µg/mL (≈ 5.31 µM)
CCOc1ncccc1C(=O)Nc1ccc(F)cc1	13.7 µg/mL (≈ 52.6 µM)
Cn1c(=O)[nH]c2c(Cl)nccc21	> 27.5 µg/mL
NC(=O)CCn1ccc2ccccc21	> 28.2 µg/mL
COC(=O)c1sccc1NC(=O)Nc1ccc(C)cc1C	6.6 µg/mL (≈ 21.7 µM)
Cc1c(C)c2ccc(OCC(=O)Nc3ccccn3)cc2oc1=O	< 0.3 µg/mL
Cc1ccc2oc(C(=O)N(C)Cc3ccon3)c(C)c2c1	39.2 µg/mL (≈ 138 µM)
O=C(c1ccccc1Cl)N1CCn2c1nc1ccccc12	29.5 µg/mL (≈ 99.1 µM)
Cc1ccc2nc(SCC(=O)NC3CCCC3)[nH]c2c1	36.1 µg/mL (≈ 125 µM)
CC(NC(=O)NC(=O)c1ccc(F)cc1)C1CC1 (centres undefined)	16.2 µg/mL (≈ 64.7 µM)
CCOC(=O)c1c(C)[nH]c(C)c1S(=O)(=O)N1CCCCC1	> 47.2 µg/mL
O=C(NC1CCCCCC1)C1CCCN(c2ncccn2)C1 (centres undefined)	> 45.4 µg/mL
COc1ccc2nc(SCC(=O)NC3CCCC3)c(C)cc2c1	< 0.4 µg/mL
CN(Cc1ccccc1)c1cc(Cl)nc(N)n1	21.5 µg/mL (≈ 86.4 µM)
O=C(CSc1cccc[n+]1[O-])NC1CCCCC1	> 40 µg/mL
C=CCn1cnc2c(sc3nc(C)cc(C)c32)c1=O	6.9 µg/mL (≈ 25.4 µM)
Cc1nc2ccccn2c1-c1ccnc(SCc2ccc(Cl)cc2)n1	< 0.2 µg/mL
Cc1nc(C)c(C(=O)C2=C(O)C(=O)N(CCN(C)C)C2c2ccco2)s1 (centres undefined)	> 56.3 µg/mL
CCN(Cc1cnn(C)c1)Cc1nc(Cc2ccccc2Cl)no1	> 51.9 µg/mL
O=C(CCS(=O)(=O)c1ccccc1)N1CCOCC1	> 42.5 µg/mL
Cn1ccsc1=NC(=O)c1cccc(OC(F)F)c1	> 42.6 µg/mL
O=C(NCc1ccccc1F)c1cccc(S(=O)(=O)N2CCCCC2)c1	5.8 µg/mL (≈ 15.4 µM)

SMILES	solubility kinetic
Cc1cc(C)c(NC(=O)Nc2ccc3c(c2)OCO3)c(C)c1	0.6 µg/mL (≈ 2.01 µM)
CCOc1ccc(S(=O)(=O)N(CC)CC(=O)NC2CC2)cc1	> 49 µg/mL
Cc1ccc(NC(=O)c2ccc(OCc3c(C)noc3C)cc2)cc1C	6.7 µg/mL (≈ 19.1 µM)
Cc1nc(SCC(=O)NCCN2C(=O)CSC2=O)nc(C)c1C	> 53.2 µg/mL
O=C(Nc1ccc(N2CCN(c3ccccc3)CC2)c(F)c1)C1CC1	< 0.2 µg/mL
COc1cc(C(=O)OCCNC(=O)c2cccnc2)cc(OC)c1OC.Cl	> 59.5 µg/mL
COc1ccc2c(c1)c1ncn(CC3CCCO3)c(=O)c1n2C (centres undefined)	38.6 µg/mL (≈ 123 µM)
CC(Oc1cccc(Cl)c1)C(=O)NCc1ccc(S(N)(=O)=O)cc1 (centres undefined)	53.3 µg/mL (≈ 145 µM)
CCc1ccc(NC(=S)N2CCN(C)CC2)cc1	> 39.5 µg/mL
N#CCSc1ncnc2ccccc12	28.1 µg/mL (≈ 140 µM)
O=C(NCc1ccccc1)c1ccc2c(c1)C(=O)N(Cc1cccnc1)C2=O	38.1 µg/mL (≈ 103 µM)
CC(C)[C@H](NC(=O)c1ccccc1F)C(=O)OCC(=O)NC(=O)NC1CCCCC1	51.3 µg/mL (≈ 122 µM)
Cc1ccc2[nH]c(=O)c(-c3noc(CC(C)C)n3)cc2c1	5.1 µg/mL (≈ 18 µM)
COc1ccc2c(c1OC)C(=O)N(c1ccc(F)cc1)C2	3.8 µg/mL (≈ 13.2 µM)
Cc1cccc(C(=O)Nc2ccc(Oc3cnccn3)cc2)c1	5.6 µg/mL (≈ 18.3 µM)
COCCCC/C(=N\OCCN)c1ccc(C(F)(F)F)cc1.O=C(O)/C=C\C(=O)O	> 65.2 µg/mL
COc1ccc([N+](=O)[O-])cc1NC(=O)COC(=O)Cn1cnc2ccccc2c1=O	> 61.9 µg/mL
Cl.O[C@@H]1CCCC[C@H]1N1CCC(c2ccccc2)CC1	> 44.4 µg/mL
COc1cccc(C(C)NC(=O)C2CCCC2)c1 (centres undefined)	> 37.1 µg/mL
COc1cc(CN2CCCCCC2)cc(OC)c1	30.6 µg/mL (≈ 123 µM)
COc1ccccc1CNc1ncnc2sccc12	34.5 µg/mL (≈ 127 µM)
CC(CC(=O)O)CC(=O)Nc1nncs1 (centres undefined)	> 34.4 µg/mL
COCCNC(=O)CSc1ncnc2sc(-c3ccccc3)cc12	1 µg/mL (≈ 2.78 µM)
Cc1c([N+](=O)[O-])c(C(=O)NC2CCCC2)nn1C	> 37.8 µg/mL

SMILES	solubility kinetic
Cc1c(-c2nc(-c3cccnc3)no2)cccc1[N+](=O)[O-]	2 µg/mL (≈ 7.09 µM)
Cc1c(C(=O)C(=O)NCc2ccco2)c2ccccc2n1C	> 44.4 µg/mL
O=S(=O)(Nc1ccc(Br)cc1)N1CCOCC1	> 48.2 µg/mL
Cc1cccc(NC(=S)NC2CCSc3ccccc32)c1 (centres undefined)	< 0.3 µg/mL
CN(CC1COc2ccccc2O1)C(=O)CSc1nncs1 (centres undefined)	> 50.6 µg/mL
O=C(O)c1ccc(Cl)c(S(=O)(=O)NCc2cccnc2)c1	> 49 µg/mL
Nc1ccc2ccc3cccc[n+]3c2c1.[O-][Cl+3]([O-])([O-])[O-]	> 44.2 µg/mL
COc1ccccc1N1C(=O)c2cccc3c(Cl)ccc(c23)C1=O	< 0.7 µg/mL
CC(C)[C@H](NC(=O)c1ccccc1F)C(=O)OCC(=O)NC1CC1	34.3 µg/mL (≈ 102 µM)
CC1CCCCN1C(=O)c1ccc(C(=O)c2ccccc2)cc1 (centres undefined)	> 46.1 µg/mL
Cc1ccc(S(=O)(=O)N2CCN(C(=O)CC(C)C)CC2)cc1	> 48.7 µg/mL
Cc1ccc(N)cc1S(=O)(=O)N(C)C	> 32.1 µg/mL
Cc1ccc(C(=O)NCC(=O)OCC(=O)Nc2cc(S(=O)(=O)N3CCOCC3)ccc2Cl)s1	> 77.4 µg/mL
Cc1cc(C)cc(C(=O)Nc2nc3ccccc3[nH]2)c1	1.4 µg/mL (≈ 5.28 µM)
Cc1nc2ccc([N+](=O)[O-])cc2c(=O)n1Cc1ccccc1Br	2 µg/mL (≈ 5.34 µM)
Cc1ccccc1C(=O)NC1CCN(CC(=O)N2CCCCC2C)CC1 (centres undefined)	> 53.6 µg/mL
CC(=O)c1cc2c(cc1NS(=O)(=O)c1ccc(F)cc1)OCO2	< 0.7 µg/mL
CN(C)S(=O)(=O)c1ccc(C(=O)OCC2COC(C)(C)O2)cc1 (centres undefined)	48.6 µg/mL (≈ 142 µM)
Cc1nc(SCc2ccccc2)c2oc3ccccc3c2n1	< 0.3 µg/mL
S=C(Nc1cccc(Cl)c1)Nc1ccc2c(c1)OCCO2	40.4 µg/mL (≈ 126 µM)
O=C(c1cc(O)c(O)c([N+](=O)[O-])c1)c1ccccc1F	> 41.6 µg/mL
CC(=O)C1=C(O)C(=O)N(c2ccc(O)cc2)C1c1ccccc1F (centres undefined)	> 49.1 µg/mL
CC(=O)N(CCCN(C)C)c1nc2ccc(C)cc2s1.Cl	> 49.2 µg/mL

Source: PubChem BioAssay AID1996
